Test results reported in patent publication US12011444B2, “N-substituted indole derivatives as PGE2 receptor modulators” (Idorsia Pharmaceuticals Ltd, priority 2015, dated 2024).

Columns and labels:
[1] = molecular target: PTGER2 (EP2) (Homo sapiens (Human), UniProt P43116); assay: hEP2 b-arrestin assay (PathHunter HEK 293 PTGER2 b-arrestin cells); type: cell-based
How it was run: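 Readout is β-galactosidase complementation luminescence, expressed as percent of DMSO control (duplicates). PathHunter HEK293 EP2/β-arrestin 2 cells, grown 24 h, received compound for 15 min at 37 °C before a 120 min challenge with PGE2 at 5 μM final, followed by 1 h detection at room temperature.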

[2] = molecular target: PTRGER4 (EP4) (Homo sapiens (Human), UniProt P35408); assay: hEP4 b-arrestin assay (PathHunter HEK 293 PTGER4 b-arrestin cells); type: cell-based
Chain of PTRGER4 (EP4) (P35408 whole entry, looked up, the tested form may be a part): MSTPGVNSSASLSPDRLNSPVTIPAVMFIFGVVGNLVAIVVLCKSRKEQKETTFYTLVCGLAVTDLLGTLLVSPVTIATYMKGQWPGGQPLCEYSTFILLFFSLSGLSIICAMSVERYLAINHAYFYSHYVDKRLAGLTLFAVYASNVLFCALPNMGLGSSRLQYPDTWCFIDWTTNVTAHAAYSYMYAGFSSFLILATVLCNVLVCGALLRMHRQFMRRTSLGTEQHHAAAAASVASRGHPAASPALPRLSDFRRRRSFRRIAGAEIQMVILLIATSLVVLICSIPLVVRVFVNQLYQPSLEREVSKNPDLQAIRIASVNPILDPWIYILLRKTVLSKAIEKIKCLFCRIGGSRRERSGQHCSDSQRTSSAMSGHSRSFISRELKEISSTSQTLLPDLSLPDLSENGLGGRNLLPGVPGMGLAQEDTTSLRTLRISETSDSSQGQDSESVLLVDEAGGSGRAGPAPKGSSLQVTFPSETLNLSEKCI
How it was run: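 Antagonist mode: compound is given 15 min at 37 °C, then 20 nM (final) PGE2 for 120 min, in HEK293 cells stably expressing EP4 fused to ProLink and β-arrestin 2 fused to EA. Recruitment read as β-gal luminescence after 1 h reagent at room temperature, as percent of DMSO control.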

[3] = antagonistic activity on hEP2, mean where measured multiple times
[4] = antagonistic activity on hEP4, mean where measured multiple times
[5] = hEP2 b-arrestin assay (values without asterisk)
[6] = hEP4 b-arrestin assay (values without asterisk)

Chain of PTGER2 (EP2) (P43116 whole entry): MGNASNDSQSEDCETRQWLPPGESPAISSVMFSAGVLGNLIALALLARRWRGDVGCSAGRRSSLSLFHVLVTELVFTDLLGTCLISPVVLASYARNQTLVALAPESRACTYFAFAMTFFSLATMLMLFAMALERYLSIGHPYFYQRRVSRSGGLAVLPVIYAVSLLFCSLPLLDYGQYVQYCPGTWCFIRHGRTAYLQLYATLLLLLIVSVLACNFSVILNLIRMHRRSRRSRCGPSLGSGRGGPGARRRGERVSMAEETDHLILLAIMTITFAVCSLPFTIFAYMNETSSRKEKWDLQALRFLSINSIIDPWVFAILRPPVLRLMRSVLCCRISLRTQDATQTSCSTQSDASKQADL

Row | IC50 [1, 3] | IC50 [2, 4] | IC50 [1, 5] | IC50 [2, 6] | SMILES
1 | 49 nM | 637 nM |  |  | Cc1cc(F)cc2c1cc(C)n2CCNc1cc(-c2ccc3c(C(=O)O)n[nH]c3c2)ncn1 [compound 183, 6-{6-[2-(6-Fluoro-2,4-dimethyl-indol-1-yl)-ethylamino]-pyrimidin-4-yl}-1H-indazole-3-carboxylic acid]
2 | 98 nM | 350 nM |  |  | Cc1cc(F)cc2c1cc(C)n2CCNc1cc(-c2ccc3cnn(C)c3c2)ncn1 [compound 53]
3 | 11 nM | 86 nM |  |  | COc1cc(F)cc2c1cc(C)n2CCNc1cc(-c2ccc(-c3ccn(C)n3)cc2)ncn1 [compound 309, [2-(6-Fluoro-4-methoxy-2-methyl-indol-1-yl)-ethyl]-{6-[4-(1-methyl-1H-pyrazol-3-yl)-phenyl]-pyrimidin-4-yl}-amine]
4 | 27 nM | 123 nM |  |  | Cc1ccc(F)c2c1cc(C)n2CCNc1cc(-c2cc(Cl)c(C(=O)O)s2)ncn1 [compound 18, 3-Chloro-5-{6-[2-(7-fluoro-2,4-dimethyl-indol-1-yl)-ethylamino]-pyrimidin-4-yl}-thiophene-2-carboxylic acid]
5 | 56 nM | 742 nM |  |  | COc1ccc(F)c2c1cc(C)n2CCNc1cc(-c2ccc3[nH]c(=O)[nH]c3c2)ncn1 [compound 115]
6 | 31 nM | 166 nM |  |  | COc1ccc(Cl)c2c1cc(C)n2CCNc1cc(-c2cc(F)c(C(=O)O)s2)ncn1 [compound 111]
7 | 19 nM | 714 nM |  |  | CCc1cc(-c2cc(NCCn3c(C)cc4c(OC)ccc(Cl)c43)ncn2)ccc1C(=O)O [compound 288]
8 | 26 nM | 227 nM |  |  | COc1cc(F)cc2c1cc(C)n2CCNc1cc(-c2ccc3cc[nH]c3c2)ncn1 [compound 63, [2-(6-Fluoro-4-methoxy-2-methyl-indol-1-yl)-ethyl]-[6-(1H-indol-6-yl)-pyrimidin-4-yl]-amine]
9 | 29 nM | 990 nM |  |  | Cc1cc2ccccc2n1CCNc1cc(-c2ccc3ccncc3c2)ncn1 [compound 133]
10 | 63 nM | 360 nM |  |  | Cc1ccc(Cl)c2c1cc(C)n2CCNc1cc(-c2ccc(C(=O)O)c(SCC(C)C)c2)ncn1 [compound 368]
11 | 55 nM | 295 nM |  |  | CCCC1NC(=O)c2ccc(-c3cc(NCCn4c(C)cc5c(C)ccc(F)c54)ncn3)cc21 (racemic) [compound 322]
12 | 43 nM | 277 nM |  |  | COc1ccc(F)c2c1cc(C)n2CCNc1cc(-c2ccc(NC(N)=O)cc2)ncn1 [compound 132, (4-{6-[2-(7-Fluoro-4-methoxy-2-methyl-indol-1-yl)-ethylamino]-pyrimidin-4-yl}-phenyl)-urea]
13 | 46 nM | 268 nM |  |  | CCCN1Cc2cc(-c3cc(NCCn4c(C)cc5c(OC)cccc54)ncn3)ccc2C1=O [compound 315, 5-{6-[2-(4-Methoxy-2-methyl-indol-1-yl)-ethylamino]-pyrimidin-4-yl}-2-propyl-2,3-dihydro-isoindol-1-one]
14 | 3 nM | 911 nM |  |  | CCc1cc(-c2cc(NCCn3c(C)cc4ccccc43)ncn2)sc1C(=O)O [compound 6]
15 | 7 nM | 97 nM |  |  | CCNc1cc(-c2cc(NCCn3c(C)cc4c(C)ccc(F)c43)ncn2)cc(F)c1C(=O)O [compound 392]
16 | 1 nM | 350 nM |  |  | CCNc1cc(-c2cc(NCCn3c(C)cc4ccc(OC)cc43)ncn2)ccc1C(=O)O [compound 170, 2-Ethylamino-4-{6-[2-(6-methoxy-2-methyl-indol-1-yl)-ethylamino]-pyrimidin-4-yl}-benzoic acid]
17 | 67 nM | 678 nM |  |  | COc1ccc(F)c2c1cc(C)n2CCNc1cc(-c2ccc(C(=O)NCCO)cc2)ncn1 [compound 361]
18 | 27 nM | 359 nM |  |  | COc1cc(F)cc2c1cc(C)n2CCNc1cc(-c2ccc(C(=O)O)c(C3CC3)c2)ncn1 [compound 382]
19 | 183 nM | 475 nM |  |  | Cc1cc(F)c(F)c2c1cc(C)n2CCNc1cc(-c2ccc3c(c2)CC(=O)N3)ncn1 [compound 93]
20 | 260 nM | 381 nM |  |  | CCCc1cc(-c2cc(NCCn3c(C)cc4cc(OC)cc(F)c43)ncn2)cc(Cl)c1C(=O)O [compound 372]

Row | IC50 [1, 3] | IC50 [2, 4] | IC50 [1, 5] | IC50 [2, 6] | SMILES
21 | 4 nM | 75 nM |  |  | CCOc1cc(-c2cc(NCCn3c(C)cc4c(OC)ccc(F)c43)ncn2)ccc1CO [compound 159, (2-Ethoxy-4-{6-[2-(7-fluoro-4-methoxy-2-methyl-indol-1-yl)-ethylamino]-pyrimidin-4-yl}-phenyl)-methanol]
22 |  |  | 60 nM | 100 nM | CCc1nc(-c2cc(NCCn3c(C)cc4c(OC)ccc(F)c43)ncn2)sc1C(=O)O [Example 1037, 4-Ethyl-2-{6-[2-(7-fluoro-4-methoxy-2-methyl-indol-1-yl)-ethylamino]-pyrimidin-4-yl}-thiazole-5-carboxylic acid]
23 | 62 nM | 570 nM |  |  | Cc1ccc(C)c2c1cc(C)n2CCNc1cc(-c2ccc(C(=O)O)c(CC(C)C)c2)ncn1 [compound 328, 2-Isobutyl-4-{6-[2-(2,4,7-trimethyl-indol-1-yl)-ethylamino]-pyrimidin-4-yl}-benzoic acid]
24 | 177 nM | 527 nM |  |  | Cc1ccc(F)c2c1cc(C)n2CCNc1cc(-c2ccc(-c3cnco3)cc2)ncn1 [compound 97]
25 |  |  | 24 nM | 20 nM | COc1ccc(F)c2c1cc(C)n2CCNc1cc(-c2nc(CC(C)C)c(C(=O)O)s2)ncn1 [Example 1036, 2-{6-[2-(7-Fluoro-4-methoxy-2-methyl-indol-1-yl)-ethylamino]-pyrimidin-4-yl}-4-isobutyl-thiazole-5-carboxylic acid]
26 |  |  | 11 nM | 111 nM | CCOc1cc(-c2cc(NCCn3c(C)cc4c(OC)ccc(F)c43)ncn2)ccc1OC(C)C(=O)O (racemic) [Example 843, rac-2-(2-Ethoxy-4-{6-[2-(7-fluoro-4-methoxy-2-methyl-indol-1-yl)-ethylamino]-pyrimidin-4-yl}-phenoxy)-propionic acid]
27 | 49 nM | 955 nM |  |  | COc1ccc(F)c2c1cc(C)n2CCNc1cc(-c2ccc(C(=O)O)cc2)ncn1 [compound 109]
28 | 7 nM | 259 nM |  |  | COc1ccc(F)c2c1cc(C)n2CCNc1cc(-c2ccc(C(=O)O)c(C3CC3)c2)ncn1 [compound 296, 2-Cyclopropyl-4-{6-[2-(7-fluoro-4-methoxy-2-methyl-indol-1-yl)-ethylamino]-pyrimidin-4-yl}-benzoic acid]
29 |  |  | 39 nM | 589 nM | CCOc1cc(-c2cc(NCCn3c(C)cc4c(OC)ccc(F)c43)ncn2)ccc1-c1nc2ccccc2o1 [Example 849, [6-(4-Benzooxazol-2-yl-3-ethoxy-phenyl)-pyrimidin-4-yl]-[2-(7-fluoro-4-methoxy-2-methyl-indol-1-yl)-ethyl]-amine]
30 |  |  | 4 nM | 5 nM | CCOc1cc(-c2cc(NCCn3c(C#N)cc4c(OC)ccc(F)c43)ncn2)sc1C(=O)O [Example 805, 5-{6-[2-(2-cyano-7-fluoro-4-methoxy-indol-1-yl)-ethylamino]-pyrimidin-4-yl}-3-ethoxy-thiophene-2-carboxylic acid]
31 |  |  | 5 nM | 21 nM | CCSc1cc(-c2cc(NCCn3c(C#N)cc4c(OC)ccc(F)c43)ncn2)ccc1C(=O)O [Example 953, 4-{6-[2-(2-Cyano-7-fluoro-4-methoxy-indol-1-yl)-ethylamino]-pyrimidin-4-yl}-2-ethylsulfanyl-benzoic acid]
32 | 62 nM | 542 nM |  |  | Cc1ccc(F)c2c1cc(C)n2CCNc1cc(-c2ccc(C(=O)O)cc2)ncn1 [compound 15, 4-{6-[2-(7-Fluoro-2,4-dimethyl-indol-1-yl)-ethylamino]-pyrimidin-4-yl}-benzoic acid]
33 |  |  | 6 nM | 18 nM | COc1ccc(F)c2c1cc(C#N)n2CCNc1cc(-c2ccc3[nH]c(=O)oc3c2)ncn1 [Example 972, 7-Fluoro-4-methoxy-1-{2-[6-(2-oxo-2,3-dihydro-benzooxazol-6-yl)-pyrimidin-4-ylamino]-ethyl}-1H-indole-2-carbonitrile]
34 |  |  | 3 nM | 2 nM | COc1ccc(F)c2c1cc(C#N)n2CCNc1cc(-c2cc(C(F)(F)F)c(C(=O)O)s2)ncn1 [Example 804, 5-{6-[2-(2-Cyano-7-fluoro-4-methoxy-indol-1-yl)-ethylamino]-pyrimidin-4-yl}-3-trifluoromethyl-thiophene-2-carboxylic acid]
35 | 54 nM | 458 nM |  |  | CSc1cc(-c2cc(NCCn3c(C)cc4c(C)ccc(Cl)c43)ncn2)cc(Cl)c1C(=O)O [compound 150]
36 |  |  | 10 nM | 3 nM | CCOc1cc(-c2cc(NCCn3c(C#N)cc4c(C)c(F)cc(F)c43)ncn2)sc1C(=O)O [Example 940, 5-{6-[2-(2-Cyano-5,7-difluoro-4-methyl-indol-1-yl)-ethylamino]-pyrimidin-4-yl}-3-ethoxy-thiophene-2-carboxylic acid]
37 | 11 nM | 102 nM |  |  | COc1ccc(F)c2c1cc(C)n2CCNc1cc(-c2ccc(-c3nnc[nH]3)cc2)ncn1 [compound 208, [2-(7-Fluoro-4-methoxy-2-methyl-indol-1-yl)-ethyl]-{6-[4-(4H-[1,2,4]triazol-3-yl)-phenyl]-pyrimidin-4-yl}-amine]
38 | 12 nM | 950 nM |  |  | CCc1cc(-c2cc(NCCn3c(C)cc4c5c(cc(Cl)c43)OCO5)ncn2)ccc1C(=O)O [compound 295, 4-{6-[2-(5-Chloro-7-methyl-[1,3]dioxolo[4,5-e]indol-6-yl)-ethylamino]-pyrimidin-4-yl}-2-ethyl-benzoic acid]
39 | 2 nM | 86 nM |  |  | CCNc1cc(-c2cc(NCCn3c(C)cc4c(C)cc(F)cc43)ncn2)ccc1C(=O)O [compound 244]
